Results published in US8466162B2, “5-alkynyl-pyridines” (Boehringer Ingelheim International GmbH, priority 2011, dated 2013).

Assays:
PI3Kalpha = target: T1, PI3Kalpha (Homo sapiens, UniProt P42336); test: Inhibition of PI3Kalpha-induced PIP-2 phosphorylation (filter-binding assay, 33P-ATP); assay type: biochemical; conditions: PI3 Kinase alpha (p85alpha/His-p110alpha), 1 μM ATP; read-out: IC50 PI3Kα
T1 construct: His (N); made in house; host or cells: SF9 insect cells (baculovirus co-infection)
T1 sequence (P27986 whole entry): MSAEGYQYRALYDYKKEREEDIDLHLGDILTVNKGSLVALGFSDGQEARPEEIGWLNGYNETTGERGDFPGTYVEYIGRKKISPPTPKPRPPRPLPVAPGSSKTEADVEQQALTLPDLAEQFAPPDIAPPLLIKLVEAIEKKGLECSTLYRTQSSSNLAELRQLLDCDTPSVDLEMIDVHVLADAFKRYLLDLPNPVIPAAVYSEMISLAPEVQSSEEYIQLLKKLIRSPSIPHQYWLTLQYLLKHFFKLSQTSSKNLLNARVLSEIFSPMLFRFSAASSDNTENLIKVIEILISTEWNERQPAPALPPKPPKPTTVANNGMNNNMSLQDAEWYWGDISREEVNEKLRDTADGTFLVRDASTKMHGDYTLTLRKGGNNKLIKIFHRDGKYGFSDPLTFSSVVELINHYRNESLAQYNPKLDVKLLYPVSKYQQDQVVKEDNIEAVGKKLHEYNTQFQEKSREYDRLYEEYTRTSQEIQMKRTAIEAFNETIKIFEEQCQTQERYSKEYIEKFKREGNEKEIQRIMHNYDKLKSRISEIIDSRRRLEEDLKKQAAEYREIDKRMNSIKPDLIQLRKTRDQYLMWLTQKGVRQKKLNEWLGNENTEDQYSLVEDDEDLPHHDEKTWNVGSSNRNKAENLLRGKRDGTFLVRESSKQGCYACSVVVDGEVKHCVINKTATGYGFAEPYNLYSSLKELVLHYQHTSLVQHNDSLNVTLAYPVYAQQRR
T1 sequence (P42336 whole entry): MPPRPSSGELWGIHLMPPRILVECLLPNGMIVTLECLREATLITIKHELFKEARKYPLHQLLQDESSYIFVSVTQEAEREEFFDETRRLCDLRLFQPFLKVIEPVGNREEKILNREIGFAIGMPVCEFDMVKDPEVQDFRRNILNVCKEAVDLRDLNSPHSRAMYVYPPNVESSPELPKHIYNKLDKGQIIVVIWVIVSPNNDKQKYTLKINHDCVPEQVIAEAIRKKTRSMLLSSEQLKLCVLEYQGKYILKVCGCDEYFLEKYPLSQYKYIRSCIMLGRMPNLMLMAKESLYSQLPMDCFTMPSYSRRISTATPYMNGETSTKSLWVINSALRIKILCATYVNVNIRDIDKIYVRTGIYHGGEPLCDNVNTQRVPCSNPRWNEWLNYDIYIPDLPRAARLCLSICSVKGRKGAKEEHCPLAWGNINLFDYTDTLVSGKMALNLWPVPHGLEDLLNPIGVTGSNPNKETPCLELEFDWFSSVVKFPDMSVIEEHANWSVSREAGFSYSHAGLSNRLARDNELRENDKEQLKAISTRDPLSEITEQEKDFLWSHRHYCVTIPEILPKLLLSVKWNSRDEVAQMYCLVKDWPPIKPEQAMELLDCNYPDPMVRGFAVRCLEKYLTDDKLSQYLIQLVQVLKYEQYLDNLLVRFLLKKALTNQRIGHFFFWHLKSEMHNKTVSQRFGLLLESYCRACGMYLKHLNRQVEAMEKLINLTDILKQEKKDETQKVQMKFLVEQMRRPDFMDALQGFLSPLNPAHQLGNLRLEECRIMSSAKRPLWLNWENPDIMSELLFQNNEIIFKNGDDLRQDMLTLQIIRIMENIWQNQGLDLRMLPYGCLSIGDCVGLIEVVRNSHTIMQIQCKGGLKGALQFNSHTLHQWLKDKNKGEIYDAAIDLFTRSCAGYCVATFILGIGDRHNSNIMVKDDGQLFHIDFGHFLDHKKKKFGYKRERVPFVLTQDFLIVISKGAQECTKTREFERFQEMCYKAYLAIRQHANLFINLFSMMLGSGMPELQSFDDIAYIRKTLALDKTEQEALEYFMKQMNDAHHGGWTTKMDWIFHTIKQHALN
Protocol: Biological Methods Inhibition of PI3Kalpha-Induced PIP-2 Phosphorylation
See also J. A. Engelman, Nature Reviews Cancer, 2009, 9, 550-562; A. Carnero, Expert Opin. Investig. Drugs, 2009, 18, 1265-1277 and P. Liu et al., Nature Reviews Drug Discovery, 2009, 8, 627-64.
Method Type: Filter-Binding-Assay
Aliquoted in desired amounts and stored at −80° C. […] Assay Procedure
The substrate-containing lipid vesicles are dissolved to a concentration of 0.637 mg lipid blend/ml assay buffer (with BSA, freshly added) in 50 ml Falcon ->keep on ice, followed by ultrasonication (pulse of 15 sec followed by a pause of 10 sec, 4×). Compounds are serially diluted in assay buffer+6% DMSO and 10 μl of each dilution is added per well of a 96-well plate (compounds are tested in duplicates) and mixed with 30 μl of the lipid vesicles containing PDGFR-Peptide (0.5 μM final) and PI3K alpha (25 ng/well final). The mixture is then incubated for 20 minutes at room temperature.
Subsequently, 20 μl of assay buffer containing 3 μM cold ATP and 0.5 μCi/20 μl 33P-ATP are added. The plates are then incubated at room temperature for 120 minutes (shaking with 300 rpm).
The reaction mix is transferred onto filter plates using “filtermate harvester” from Packard: filter plates are rinsed with PBS, then the reaction mix is filtered onto the filter plate, washed 5 times with PBS and are allowed to dry for 30-60 minutes at 50° C. The plate bottom is sealed with Perkin Elmer white adhesive foil and 25 μl/well Microscint0 are added, the top is covered with transparent adhesive foil and the plate is measured with Wallac Trilux 1450 Microbeta Counter.
As positive control serve wells containing vehicle controls (1% DMSO in assay buffer), showing non-inhibited kinase activity (high values). Wells containing assay buffer instead of enzyme can serve as control for background activity (low values).
Calculate IC50 values using the Smiley program (based on GrapPad Prism)

MB453 cells = test: alamarBlue MB453 cell assay (antiproliferative/cytotoxicity); assay type: cell-based; conditions: Homo sapiens; MDA MB 453 breast cancer cell line
From the text: (§1) The H460, MB453, U87, MCF7 and BT474 alamarBlue cell assays provide EC50 values indicative of the antiproliferative or cytotoxic effects of the compounds to respectively the H460 (human non small cell line cancer), MB-453 (breast cancer cell line), U87 (glioblastoma cell line), MCF7 (breast cancer cell line) and BT474 (breast cancer cell line). As known in the field, antiproliferative or cytotoxic effect against this cell lines would be expected to be indicative of activity in treating lung, breast and brain cancers. See R. Marone R et al. Biochim. Biophys. Acta. 2008 January; 1784(1):159-85. S. Yaguchi et al., J. Natl. Cancer Inst. 2006 Apr. 19; 98(8):545-56.
(§2) Method Type: Antiproliferative/Cytotoxicity
(§3) alamarBlue® is designed to provide a rapid and sensitive measure of cell proliferation and cytotoxicity in various human and animal cell lines. The assay is based on the reduction of alamarBlue in the reducing environment of living (metabolically active) cells. In the presence of added cytotoxic or antiproliferative compounds, the innate metabolic activity ceases.
(§4) AlamarBlue is soluble and stable in culture medium. Measurements are made fluorometrically by exciting at 530-560 nm and measuring emission at 590 nm. In reporting percent alamarBlue reduction by monitoring fluorescence, data are expressed as fluorescence emission intensity units as a function of time of incubation.
(§5) 3. Equipment • 96-well plates, flat bottom (Falcon, Cat. No.: 353072) • 96-well plates, U-shaped (Costar, Cat. No.: 3799) • CO2-Incubator • Microplate Reader, Spectramax Plus, Molecular Devices 4. Typical Procedure • Day 0: Seed 3000 BT-474 cells (IMDM/5% FCS, 1% NEAA, 1% Sodiumpyruvat) in 150 μl medium into a 96-well plate, flat bottom (include mediumblank). Incubate plates at 37° C. in a CO2 incubator overnight. • Day 1: Dilute compounds to a concentration 40 μM ->1:3 in medium, 10 dilution steps, in 96-well plates. • Add 50 μl per well of each dilution (total volume per well 200 μl; final conc. of cpds: 10 μM ->1:3). If required, test further dilutions. • All concentrations are tested in duplicates. • Controls: Cells w/o cpd. (+50 μl medium/DMSO). • Cells are incubated with compounds for 5-6 days. • Day 6 or 7: Add 25 μl of alamarBlue solution to each well and incubate for 8 hours at 37° C. Measure fluorescence by exciting at 530-560 nm and measuring emission at 590 nm 5. Evaluation • Subtract average value for medium blank from sample readings • Calculate EC50 using GraphPad Prism (Fifty)

BT474 cells = test: alamarBlue BT474 cell assay (antiproliferative/cytotoxicity); assay type: cell-based; conditions: BT-474 human breast cancer cell line, 5-6 days incubation
From the text: as §1, §2, §3, §4, §5

U87 cells = test: alamarBlue U87 cell assay (antiproliferative/cytotoxicity); assay type: cell-based; conditions: U-87MG human glioblastoma cells
From the text: as §1, §2, §3, §4, §5

MCF7 cells = test: alamarBlue MCF7 cell assay (antiproliferative/cytotoxicity); assay type: cell-based; conditions: MCF7 human breast cancer cell line
From the text: as §1, §2, §3, §4, §5

H460 cells = test: alamarBlue H460 cell assay (antiproliferative/cytotoxicity); assay type: cell-based; conditions: NCI-H460; H460 human lung carcinoma cells
From the text: as §1, §2, §3, §4, §5

SMILES | IC50 (PI3Kalpha) | EC50 (MB453 cells) | EC50 (BT474 cells) | EC50 (U87 cells) | EC50 (MCF7 cells) | EC50 (H460 cells)
CCc1nc(N)nc(-c2ccc(C(=O)N3CCN(C)CC3)c(F)c2)c1C#Cc1cnc(C)c(NS(=O)(=O)c2ccc(F)cc2F)c1 [Example 32, N-(5-{2-Amino-4-ethyl-6-[3-fluoro-4-(4-methyl-piperazine-1-carbonyl)-phenyl]-pyrimidin-5-ylethynyl}-2-methyl-pyridin-3-yl)-2,4-difluoro-benzenesulfonamide] | 0.28 nM | 49 nM | 127 nM | 259 nM | 23 nM | 500 nM
CCc1ncnc(-c2ccnc(C)c2)c1C#Cc1cnc(C)c(NS(=O)(=O)c2cn(C)cn2)c1 [Example 93, 1-Methyl-1H-imidazole-4-sulfonic acid {5-[4-ethyl-6-(2-methyl-pyridin-4-yl)-pyrimidin-5-ylethynyl]-2-methyl-pyridin-3-yl}-amide] | 1 nM | 149 nM | 406 nM | 562 nM | 194 nM | 293 nM
CCc1ncnc(-c2ccccc2F)c1C#Cc1cnc(C)c(NS(C)(=O)=O)c1 [Example 57, N-{5-[4-Ethyl-6-(2-fluoro-phenyl)-pyrimidin-5-ylethynyl]-2-methyl-pyridin-3-yl}-methanesulfonamide] | 8 nM | 1620 nM | 1080 nM | 2660 nM | 541 nM | 3140 nM
CCc1ccccc1S(=O)(=O)Nc1cc(C#Cc2c(CC)ncnc2-c2ccnc(C)c2)cnc1C [Example 88, 2-Ethyl-N-{5-[4-ethyl-6-(2-methyl-pyridin-4-yl)-pyrimidin-5-ylethynyl]-2-methyl-pyridin-3-yl}-benzenesulfonamide] | 9 nM | 330 nM | 175 nM | 704 nM | 65 nM | 140 nM
CCc1ncnc(-c2cccc(F)c2)c1C#Cc1cnc(C)c(NS(C)(=O)=O)c1 [Example 61, N-{5-[4-Ethyl-6-(3-fluoro-phenyl)-pyrimidin-5-ylethynyl]-2-methyl-pyridin-3-yl}-methanesulfonamide] | 1 nM | 420 nM | 693 nM | 321 nM | 454 nM | 400 nM
Cc1ncc(C#Cc2c(C)ncnc2-c2cccc(C#N)c2)cc1NS(C)(=O)=O [Example 39, N-{5-[4-(3-Cyano-phenyl)-6-methyl-pyrimidin-5-ylethynyl]-2-methyl-pyridin-3-yl}-methanesulfonamide] | 4 nM | 524 nM | 837 nM | 955 nM | 213 nM | 1550 nM
CCc1ncnc(-c2cccc(C(F)(F)F)c2F)c1C#Cc1cnc(C)c(NS(C)(=O)=O)c1 [Example 70, N-{5-[4-Ethyl-6-(2-fluoro-3-trifluoromethyl-phenyl)-pyrimidin-5-ylethynyl]-2-methyl-pyridin-3-yl}-methanesulfonamide] | 20 nM | 1270 nM | 1570 nM | 2350 nM | 374 nM | 1180 nM
CCc1ncnc(-c2ccc(C(=O)N(C)C)cc2F)c1C#Cc1cnc(C)c(NS(C)(=O)=O)c1 [Example 72, 4-[6-Ethyl-5-(5-methanesulfonylamino-6-methyl-pyridin-3-ylethynyl)-pyrimidin-4-yl]-3-fluoro-N,N-dimethyl-benzamide] | 8 nM | 746 nM | 1950 nM | 1580 nM | 679 nM | 3030 nM
CCc1ncnc(-c2cccc(CN(C)C)c2)c1C#Cc1cnc(C)c(NS(C)(=O)=O)c1 [Example 2, N-{5-[4-(3-Dimethylaminomethyl-phenyl)-6-ethyl-pyrimidin-5-ylethynyl]-2-methyl-pyridin-3-yl}-methanesulfonamide] | 7 nM | 394 nM | 588 nM | 1230 nM | 439 nM | 2820 nM
CCc1cc(-c2ncnc(CC)c2C#Cc2cnc(C)c(NS(C)(=O)=O)c2)ccn1 [Example 5, N-{5-[4-Ethyl-6-(2-ethyl-pyridin-4-yl)-pyrimidin-5-ylethynyl]-2-methyl-pyridin-3-yl}-methanesulfonamide] | 0.63 nM | 54 nM | 117 nM | 220 nM | 34 nM | 159 nM
CCc1ncnc(-c2ccnc(C)c2)c1C#Cc1cnc(C)c(NS(=O)(=O)c2ccc(C#N)cc2)c1 [Example 84, 4-Cyano-N-{5-[4-ethyl-6-(2-methyl-pyridin-4-yl)-pyrimidin-5-ylethynyl]-2-methyl-pyridin-3-yl}-benzenesulfonamide] | 2 nM | 190 nM | – | 778 nM | 85 nM | 769 nM
CCc1ncnc(-c2ccnc(C)c2)c1C#Cc1cnc(C)c(NS(=O)(=O)c2ccccc2Cl)c1 [Example 11, 2-Chloro-N-{5-[4-ethyl-6-(2-methyl-pyridin-4-yl)-pyrimidin-5-ylethynyl]-2-methyl-pyridin-3-yl}-benzenesulfonamide] | 1 nM | 190 nM | – | 686 nM | 74 nM | 103 nM
CCc1ncnc(-c2ccc(CN)nc2)c1C#Cc1cnc(C)c(NS(=O)(=O)c2ccccc2)c1 [Example 106, N-{5-[4-(6-Aminomethyl-pyridin-3-yl)-6-ethyl-pyrimidin-5-ylethynyl]-2-methyl-pyridin-3-yl}-benzenesulfonamide] | 1 nM | 118 nM | 131 nM | 213 nM | – | 393 nM
CCc1ncnc(-c2ccnc(C)c2)c1C#Cc1cnc(C)c(NS(=O)(=O)c2c(F)cccc2F)c1 [Example 103, N-{5-[4-Ethyl-6-(2-methyl-pyridin-4-yl)-pyrimidin-5-ylethynyl]-2-methyl-pyridin-3-yl}-2,6-difluoro-benzenesulfonamide] | 0.32 nM | 59 nM | 53 nM | 161 nM | – | 185 nM
CCc1ncnc(-c2ccnc(C)c2)c1C#Cc1cnc(C)c(NS(=O)(=O)c2ccccc2OC)c1 [Example 96, N-{5-[4-Ethyl-6-(2-methyl-pyridin-4-yl)-pyrimidin-5-ylethynyl]-2-methyl-pyridin-3-yl}-2-methoxy-benzenesulfonamide] | 0.71 nM | 102 nM | 84 nM | 225 nM | – | 93 nM
